We go through two compounds from patent US4360595A, “Fermentation process for producing anandimycin” (Bristol-Myers Company, priority 1981, dated 1982).

The test system of one data set is E. coli 15119. Nature of the data set: in vitro MIC, standard tube dilution procedure. The class given is cell-based. The following applies: Escherichia coli; E. coli 15119; read-out: Minimum Inhibitory Concentration. On the procedure: (§1) The in vitro minimum inhibitory concentrations (MIC) of anandimycin were determined against a variety of microorganisms using the standard tube dilution procedure.

For another data set, the system named is E. coli 20341-1. In words: in vitro MIC, standard tube dilution procedure. The class given is cell-based. The following applies: Escherichia coli, 203411; E. coli 20341-1; read-out: Minimum Inhibitory Concentration. The procedure:
as §1

Another data set relates to Ent. cloacae 9659. In words: in vitro MIC, standard tube dilution procedure. Type of data set: cell-based. The following applies: Enterobacter cloacae; Ent. cloacae 9659; read-out: Minimum Inhibitory Concentration. On the procedure:
as §1

In the next data set the test system is K. pneumoniae 15130. Nature of the data set: in vitro MIC, standard tube dilution procedure. Type of data set: cell-based. The following applies: Klebsiella pneumoniae; K. pneumoniae 15130; read-out: Minimum Inhibitory Concentration. The procedure:
as §1

For the next data set, the system named is Pr. mirabilis 9900. Nature of the data set: in vitro MIC, standard tube dilution procedure. The class given is cell-based. The following applies: Proteus mirabilis; Pr. mirabilis 9900; read-out: Minimum Inhibitory Concentration. On the procedure: as §1
The next data set deals with Pr. vulgaris 21559. Nature of the data set: in vitro MIC, standard tube dilution procedure. Type of data set: cell-based. The following applies: Proteus vulgaris; Pr. vulgaris 21559; read-out: Minimum Inhibitory Concentration. On the procedure: as §1
For the next data set, the system named is Ps. aeruginosa 9843A. Nature of the data set: in vitro MIC, standard tube dilution procedure. The class given is cell-based. The following applies: Pseudomonas aeruginosa; Ps. aeruginosa 9843A; read-out: Minimum Inhibitory Concentration. On the procedure: as §1
For another data set, the system named is Ser. marcescens 20019. Nature of the data set: in vitro MIC, standard tube dilution procedure. The following applies: Serratia marcescens; Ser. marcescens 20019; read-out: Minimum Inhibitory Concentration. Type of data set: cell-based. On the procedure: as §1
For data set [1], the system named is Staph. aureus (penicillin-resistant) 9606. Nature of the data set: in vitro MIC, standard tube dilution procedure. Type of data set: cell-based. The following applies: Staphylococcus aureus, read-out: Minimum Inhibitory Concentration. The procedure: as §1
In the next data set the test system is Staph. aureus 9587. Nature of the data set: in vitro MIC, standard tube dilution procedure. The class given is cell-based. The following applies: Staphylococcus aureus; Staph. aureus 9587; read-out: Minimum Inhibitory Concentration. The procedure: as §1
The test system of another data set is Str. faecalis 20,588. In words: in vitro MIC, standard tube dilution procedure. The following applies: Enterococcus faecalis; Str. faecalis 20,588; read-out: Minimum Inhibitory Concentration. Type of data set: cell-based. The procedure: as §1
The test system of a further data set is Str. pneumoniae 9585. Nature of the data set: in vitro MIC, standard tube dilution procedure. The following applies: Streptococcus pneumoniae; Str. pneumoniae 9585; read-out: Minimum Inhibitory Concentration. Type of data set: cell-based. On the procedure: as §1
Another data set relates to Str. pyogenes 9604. Nature of the data set: in vitro MIC, standard tube dilution procedure. Type of data set: cell-based. The following applies: Streptococcus pyogenes; Str. pyogenes 9604; read-out: Minimum Inhibitory Concentration. The procedure:
as §1

The nature of data set [2]: solubility in organic solvents (trituration, chromatography). The class given is physicochemical. The following applies: solvents for (preparative) chromatography. An excerpt:
The solids obtained from extraction of the whole broth are next washed with diethyl ether to remove any lard oils and antifoams used in the fermentation. […] To remedy this problem a simple organic solvent trituration scheme was developed which effects a gross separation of the yellow pigments and another class of antitumor agents produced by strain C-22,437 (rachelmycin) from anandimycin on the basis of differential solubility. […] The first step involves trituration of the extraction solids with acetone. The resulting filtrate contains another antitumor substance which is active in the lysogenic bacteria induction assay and the P388 mouse tumor system (rachelmycin). The insoluble solid from the acetone trituration contains the yellow pigments along with a complex of anandimycin and another similar compound. The second phase of the process involves trituration with a ternary organic solvent system 40:30:30(^v/v) chloroform:methanol:tetrahydrofuran. The soluble fraction contains the yellow pigments. […] Substantially pure anandimycin is separated from the enriched mixture using high pressure liquid chromatography on silica gel as described in more detail below.
The analytical solvent system routinely used is hexane:ethyl acetate:isopropanol (30:70:3^v /v) along with 0.1 to 0.4 part water depending on the relative activity state of the silica gel surface in the column being used. If tailing effects are observed, then typically one increases the water content of the solvent system within the 0.1-0.4 part range to improve peak symmetry, thereby permitting a more quantitative analysis.
The preparative solvent system is ethyl acetate:isopropanol:water (87:13:0.5^v /v). […] A shave-recycle method involves increasing the effective silica gel column length through the employment of continuous multiple pass chromatography of the anandimycin-component II band. […] Initial chromatography gave anandimycin enriched to 70-85% purity. Accumulated solids are rechromatographed to yield material of >90% purity. […]

The nature of data set [3]: biological activity (in words).
The next data set deals with E. coli. Nature of the data set: lysogenic bacterial induction (ILB) assay. Type of data set: cell-based. An excerpt: Analytical high pressure liquid chromatography, Bacillus subtilis zone of inhibition, lysogenic bacterial induction and P388 mouse tumor assays are used throughout the above-described separation processes to monitor relative levels of anandimycin and co-produced substances.

Another data set deals with P-388 leukemia. In words: transplantable mouse tumor P-388 leukemia. Type of data set: in vivo, mouse (CDF1 female mice). The following applies: filtrate of acetone trituration. The procedure: Anandimycin was also tested against the transplantable mouse tumor P-388 leukemia. The methodology used generally followed the protocols of the National Cancer Institute (Cancer Chemotherapy Rep., Part 3, 3, 1-103 (1972). The essential experimental details are given at the bottom of the following table. Two different dose regimens are tested: single dose on day 1 and three doses given on days 1, 5 and 9. The optimal dose was 64 mg/kg. single dose.
Tumor inoculum: 10^6 ascites cells implanted
Host: CDF1 .female. mice
Evaluation: MST = median survival
Effect: % T/C = (MST treated/MST control) ×
Criteria: % T/C ≥ 125 considered significant antitumor
Tox: […] 4/6 mice alive on day 5
AWC = average weight gain (treatedcontrol) in grams (on day 4)

Data set [4] in a line: antimicrobial / antibiotic activity (in words). The class given is cell-based.

Values after ≈ are worked out from the molar mass of the structure shown. “Also recorded” adds a separate entry of the source. A value given as a limit tells only on which side of the number the result lay.

Regarding `COc1cc2c(oc(=O)c3cc(O)cc(OC)c32)c2c(C3OC(C(C)O)C(O)C3O)ccc(O)c12` (stereo not drawn) [Component II], the MIC in the data set on E. coli 15119, in the data set with E. coli 20341-1, with Ent. cloacae 9659, in the data set on K. pneumoniae 15130, in the data set with Pr. mirabilis 9900 and with Pr. vulgaris 21559 was more than 63 µg/mL throughout. For the same compound, the MIC in the data set on Ps. aeruginosa 9843A was more than 63 µg/mL; in the data set with Ser. marcescens 20019, more than 63 µg/mL; in data set [1] it was 0.5 µg/mL (≈ 1.03 µM); in the data set on Staph. aureus 9587 it was 0.13 µg/mL (≈ 0.268 µM); with Str. faecalis 20,588, 0.13 µg/mL (≈ 0.268 µM); with Str. pneumoniae 9585, 0.25 µg/mL (≈ 0.516 µM). Also, the MIC in the data set on Str. pyogenes 9604 amounted to 0.5 µg/mL (≈ 1.03 µM). The “solubility in chromatography solvents” value in data set [2] is given as “poor solubility”. Moreover, in data set [3], the biological activity entry is “biologically inactive”.
Take `COc1c(O)c2c(c3cc(C(=O)N4CCc5c4c(O)c(OC)c4[nH]c(C(=O)N6CC7CC78C6=CC(=O)c6[nH]cc(C)c68)cc54)[nH]c13)CCN2C(N)=O` (stereo not drawn) [rachelmycin, reference compound]: in the data set on E. coli, the “lysogenic bacterial induction activity” value was “active; also recorded: possesses both antibiotic and lysogenic bacterial induction activity”. For the same compound, the “activity in the P388 mouse tumor system” value with P-388 leukemia is listed as “active”. Also, the “antimicrobial / antibiotic activity” value in data set [4] is “possesses both antibiotic and lysogenic bacterial induction activity”.
